The results in this text go back to US11844847B2, “Sulfur-containing polymerizable monomer and use thereof” (SUN MEDICAL CO., LTD., priority 2018, dated 2023).

The series in a line: Solubility evaluation: solution stirred 0.5 hours, visually inspected for insolubles. Type of series: physicochemical. Here is the method: Solutions were obtained by adding the sulfur-containing compound of the amount described in Table 1 or Table 1a to the amount described in Table 1 or Table 1a of the organic solvent or the radically polymerizable monomer.
The solutions obtained were stirred with a magnetic stirrer for 0.5 hours and were then visually inspected for the presence of insolubles. The solutions were evaluated as ◯ when the solution was transparent and free from insolubles, as Δ when the solution was turbid but free from insolubles, and as x when insolubles were present. The solubility evaluations in Tables 3 to 6 are also based on the same criteria.

The mark [1] stands for this setting: 0.65 parts sulfur-containing compound in 99.35 parts IPA.
Where [2] appears, read: 2.6 parts sulfur-containing compound in 97.4 parts IPA.
[3] abbreviates: 2.6 parts sulfur-containing compound in 97.4 parts MMA.
The mark [4] stands for this setting: 2.6 parts sulfur-containing compound in 97.4 parts acetone.
Setting [5] is: 20 parts sulfur-containing compound in 80 parts acetone.
Where [6] appears, read: added to acetone at a concentration of 20 mass %.

The structures appear in SMILES notation.

For `C=C(C)C(=O)OCCCCCCCCCCOC(=O)CCC1NC(=S)NC1=O` (stereo not drawn) [10-THPDM, 10-((3-(5-oxo-2-thioxoimidazolidin-4-yl)propanoyl)oxy)decyl methacrylate], the Solubility result under setting [1] was “∘”; the Solubility result (0.65 parts sulfur-containing compound in 99.35 parts MMA) is given as “∘”; the Solubility result (0.65 parts sulfur-containing compound in 99.35 parts acetone) is recorded as “∘”; the Solubility entry under setting [2] is reported as “∘”; the Solubility entry under setting [3] is “∘”; the Solubility result under setting [4] is recorded as “∘”. Besides, the Solubility entry under setting [5] is recorded as “∘”. Moreover, the “solubility (in words)” value under setting [6] is reported as “dissolved completely”.
Consider `C=C(C)C(=O)OCCCCCCOC(=O)CCC1NC(=S)NC1=O` (stereo not drawn) [6-THPHM, 6-((3-(5-oxo-2-thioxoimidazolidin-4-yl)propanoyl)oxy)hexyl methacrylate], for which the Solubility entry runs as follows: under setting [2], “∘”; under setting [3], “∘”; under setting [4], “∘”.
`C=C(C)C(=O)OCCCCCCCCCCC1NC(=S)NC1=O` (stereo not drawn) [a24, 10-(5-oxo-2-thioxoimidazolidin-4-yl)decyl methacrylate]: the Solubility entry runs as follows: under setting [2], “∘”; under setting [3], “∘”; under setting [5], “∘”.
For the compound `C=C(C)C(=O)OCCCCCC=C1NC(=S)NC1=O` [a21, 6-(5-oxo-2-thioxoimidazolidin-4-ylidene)hexyl methacrylate], the Solubility result under setting [1] is “∘”, the Solubility entry under setting [3] is recorded as “∘” and the Solubility result (10 parts sulfur-containing compound in 90 parts acetone) is recorded as “∘”.
As for `C=C(C)C(=O)OCCCCCCCC=C1NC(=S)NC1=O` [a23, 8-(5-oxo-2-thioxoimidazolidin-4-ylidene)octyl methacrylate], the Solubility entry is reported as “∘” under setting [2], “∘” under setting [3] and “∘” under setting [5].
In the case of `C=C(C)C(=O)OCCCCOC(=O)CCC1NC(=S)NC1=O` (stereo not drawn) [4-THPBM, 4-((3-(5-oxo-2-thioxoimidazolidin-4-yl)propanoyl)oxy)butyl methacrylate], the Solubility result by setting is: under setting [2], “∘”; under setting [3], “∘”; under setting [4], “∘”.
On to `C=C(C)C(=O)OCCCCCCC1NC(=S)NC1=O` (stereo not drawn) [a20, 6-(5-oxo-2-thioxoimidazolidin-4-yl)hexyl methacrylate], for which the Solubility entry is “∘” under setting [2], “∘” under setting [3] and “∘” under setting [5].
`C=Cc1ccc(CN(CCC)c2nc(=S)[nH]c(=S)[nH]2)cc1` [VBATDT, 6-(4-Vinylbenzyl-n-propyl)amino-1,3,5-triazine-2,4-dithione, reference compound]: the Solubility entry by setting is: (0.5 parts sulfur-containing compound in 99.5 parts acetone) “∘”; under setting [4], “∘”. Moreover, the “solubility (in words)” value reads like this: under setting [6], “generated insolubles”; (with respect to IPA and MMA) “low solubility”.
For the compound `C=C(C)C(=O)OCCOC(=O)CCC1NC(=S)NC1=O` (stereo not drawn) [2-THPEM, 2-((3-(5-oxo-2-thioxoimidazolidin-4-yl)propanoyl)oxy)ethyl methacrylate], the Solubility entry under setting [2] is recorded as “∘”, the Solubility entry under setting [3] is “∘” and the Solubility entry under setting [4] was “∘”.
Turning to `C=C(C)C(=O)OCCCCCCCCCC=C1NC(=S)NC1=O` [a25, 10-(5-oxo-2-thioxoimidazolidin-4-ylidene)decyl methacrylate], the Solubility entry is, setting by setting: under setting [2], “∘”; under setting [3], “∘”; under setting [5], “∘”.
